Data from US10675267B2, “Methods for detection and eradication of myeloid leukemia stem cells” (priority 2015, dated 2020).

How the values were obtained:
HEK293 cells = assay: In vitro splicing of endogenous transcripts (qRT-PCR, RT-PCR) in HEK293; type: cell-based
Experimental: (§1) For qRT-PCR analysis of relative total mRNA expression levels or splice isoform-specific expression analyses, cDNA was synthesized using 50 ng-1 pg of template RNA in 20 μL reaction volumes using the First-Strand SUPERSCRIPT™ III Reverse Transcriptase Supermix (Life Technologies) followed by incubation with RNase H according to the manufacturer's protocol and as described previously. All cDNA products were stored at −20° C. Splice isoform-specific primers for PTK2B-202 were designed to bind to unique exon junctions for this transcript, which lacks exon 24. […] For standard qRT-PCR, human HPRT mRNA transcript levels were used to normalize Ct values obtained for each gene, and relative expression levels were calculated using the 2^−ddCt method. […]
as §1, with “[…]” for “pg”, “[…]” for “μL”, “previously (Abrahamsson et al., 2009; Crews et al., 2015).” for “previously. All cDNA products were stored at −20° C. Splice isoform-specific primers for PTK2B-202 were designed to bind to unique exon junctions for this transcript, which lacks exon 24.”, “2-ddCt” for “2^−ddCt”

[1] = Mouse weights over the two-week treatment period (tolerability); type: in vivo; settings: 5-10 mg/kg intravenously, three doses over two weeks
Experimental: For in vivo treatments, a 10 mg/mL stock solution of 17S-FD-895 solubilized in DMSO was used. After randomization, AML-engrafted mice were dosed intravenously with 17S-FD-895 (5-10 mg/kg) or vehicle (for AML-08, vehicle control=15% DMSO in PBS; for AML-37, vehicle control=20% DMSO in PBS) three times over a two-week period, with the first dose given on day 1, the second on day 7, and the third on day 14. For preparation of RNA from human LSC-enriched populations, single cell suspensions from spleen and bone marrow were CD34 double-selected (over two LS selection columns, Miltenyi) and 1-2×10^5 cells were collected in lysis buffer or pooled according to treatment group for serial transplantation assays.
All animal studies were performed in accordance with UCSD and NIH-equivalent ethical guidelines and were approved by the Institutional Animal Care and Use Committee. Three AML PRIMAGRAFT™ models were established from AML LSC-enriched cell fractions (1-2×10^5 CD34^+ cells) transplanted intrahepatically into neonatal Rag2^−/−γc^−/− as previously described (Abrahamsson et al., 2009), or intravenously into sublethally irradiated adult (6-8 weeks old) NOD/SCID-IL2RG mice (NSGS, Jackson Laboratory). […] After treatment, hematopoietic tissues were analyzed as described following. […]

Question: What does the source list for `CC[C@H](OC)[C@@H](C)[C@H]1O[C@@H]1[C@@H](O)[C@H](C)/C=C/C=C(\C)[C@H]1OC(=O)C[C@H](O)CC[C@@](C)(O)[C@@H](OC(C)=O)/C=C/[C@@H]1C` (stereo in doubt) [Formula 17S-FD-895, 17S-FD-895]?
Answer: MCL1-S expression (qRT-PCR) (HEK293 cells; HEK293, 0.01-10 μM, 4 hrs): low doses of 17S-FD-895 increased MCL1-S expression, this effect was reversed at high doses; DNAJB1 intron 2 levels (HEK293 cells; HEK293 cells, compared with MOLM-13): to a lesser extent; tolerability / weight changes [1]: well tolerated, with no significant weight changes detected
